1 molecule from patent US11274332B2, “Methods of administering 3,4-diaminopyridine” (SERB SA, priority 2011, dated 2022) can be followed below.

The structures appear in SMILES notation.

Data set [1] concerns the target T1, cloned human Kv1.2 potassium channel (Homo sapiens, UniProt P16389).
T1 construct: expressed in transfected cells
Description: PatchXpress inhibition of cloned human Kv1.2 in HEK293 cells (Example 6). Format: cell-based. As to conditions: hKv1.2, up to 3000 μM. The source says: (§1) The objective of this study was to examine the in vitro effects and determine the […] of 3,4-DAP phosphate and the metabolite N-(4-aminopyridin-3-yl) acetamide HCl on the following ion channels: cloned human Kv1.1 potassium channel (encoded by the human KCNA1 gene, expressed in HEK293 cells), cloned human Kv1.2 potassium channel (encoded by the human KCNA2 gene, expressed in HEK293 cells), cloned human Kv1.3 potassium channel (encoded by the human KCNA3 gene, expressed in CHO cells), cloned human Kv1.4 potassium channel (encoded by the human KCNA4 gene, expressed in HEK293 cells), cloned human Kv1.5 potassium channel (encoded by the human KCNA5 gene and expressed in CHO cells), responsible for IKur, ultra-rapid delayed rectifier potassium current.
(§2) Chemicals used in solution preparation were purchased from Sigma-Aldrich (St. Louis, Mo.), unless otherwise noted, and were of ACS reagent grade purity or higher. Stock solutions of each test article (100 mM, 30 mM and 1.00 mM 3,4-DAP phosphate and 100 mM N-(4-aminopyridin-3-yl)acetamide) were prepared in sterile water and stored refrigerated. […]
(§3) In preparation for a recording session, intracellular solution was loaded into the intracellular compartments of the Sealchip16. […] After establishment of a whole-cell configuration, membrane currents were recorded using dual-channel patch clamp amplifiers in the PatchXpress®. […]

The nature of data set [2]: Rat PK study, IV and oral TID amifampridine phosphate (Example 4). The class given is in vivo. As to conditions: rat plasma. The procedure: The objective of this study was to determine the absolute bioavailability of amifampridine phosphate and the pharmacokinetics of amifampridine and its 3-N-acetyl metabolite upon single-dose IV and single-day oral dose (TID) administration.
Amifampridine phosphate was administered by IV bolus at 0.8 mg/kg (in saline) to 6 rats/sex and by oral gavage (in water) TID (approximately 6 hours apart) at dose levels of 2, 8, and 25 mg/kg/dose (equivalent to 6, 24, and 75 mg/kg/day) to 12 rats/sex/group, with oral Dose 1 given to fasted rats and Dose 2 and 3 with food ad libitum. For IV bolus dose and oral Dose 1 (dose administration No. 1), blood samples were collected from three animals/sex/timepoint at predose and 0.083 (IV only), 0.17, 0.25, 0.33, 0.5, 0.75, 1, 1.25 (IV only), 1.5, 2, 2.5, 3, and 6 hours post-dose; 0.17, 0.5, and 6 hours following the second oral dose (dose administration No. 2); and 0.17, 0.25, 0.33, 0.5, 0.75, 1, 1.5, 2, 3, 4, 6, 8, and 10 hours following the third oral dose (dose administration No. 3). The second and third oral doses were given at 6 and 12 hours, respectively, after the first dose. LC-MS/MS was used to quantify amifampridine, 3-N-acetyl and 4-N-acetyl amifampridine metabolites in rat plasma samples. […] Noncompartmental analysis was applied to the mean plasma amifampridine and 3-N-acetyl metabolite concentration data for male and female rats. […]

In data set [3] the target is T2, cloned human Kv1.4 potassium channel (Homo sapiens, UniProt P22459).
T2 construct: expressed in transfected cells
T2 sequence (P22459 whole entry): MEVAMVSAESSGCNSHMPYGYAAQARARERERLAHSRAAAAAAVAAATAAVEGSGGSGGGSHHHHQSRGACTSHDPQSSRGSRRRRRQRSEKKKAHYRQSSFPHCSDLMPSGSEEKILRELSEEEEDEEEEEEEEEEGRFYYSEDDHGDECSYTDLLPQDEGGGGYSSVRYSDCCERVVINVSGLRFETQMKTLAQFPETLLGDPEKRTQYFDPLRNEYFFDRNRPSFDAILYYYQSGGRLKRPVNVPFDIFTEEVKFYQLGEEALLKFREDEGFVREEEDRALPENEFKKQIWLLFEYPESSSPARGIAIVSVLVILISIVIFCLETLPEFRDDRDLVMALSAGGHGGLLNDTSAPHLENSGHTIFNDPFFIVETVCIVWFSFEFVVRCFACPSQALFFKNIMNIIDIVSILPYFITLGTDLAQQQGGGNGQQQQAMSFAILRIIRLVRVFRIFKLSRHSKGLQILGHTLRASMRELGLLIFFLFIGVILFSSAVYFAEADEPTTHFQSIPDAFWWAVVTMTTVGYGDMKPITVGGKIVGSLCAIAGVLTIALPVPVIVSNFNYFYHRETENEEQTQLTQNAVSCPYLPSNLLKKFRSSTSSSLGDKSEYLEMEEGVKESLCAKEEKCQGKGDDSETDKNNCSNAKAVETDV
Description: PatchXpress inhibition of cloned human Kv1.4 in HEK293 cells (Example 6). The following applies: hKv1.4, up to 3000 μM. Format: cell-based.
From the text: as §1, §2, §3

T1 sequence (P16389 whole entry): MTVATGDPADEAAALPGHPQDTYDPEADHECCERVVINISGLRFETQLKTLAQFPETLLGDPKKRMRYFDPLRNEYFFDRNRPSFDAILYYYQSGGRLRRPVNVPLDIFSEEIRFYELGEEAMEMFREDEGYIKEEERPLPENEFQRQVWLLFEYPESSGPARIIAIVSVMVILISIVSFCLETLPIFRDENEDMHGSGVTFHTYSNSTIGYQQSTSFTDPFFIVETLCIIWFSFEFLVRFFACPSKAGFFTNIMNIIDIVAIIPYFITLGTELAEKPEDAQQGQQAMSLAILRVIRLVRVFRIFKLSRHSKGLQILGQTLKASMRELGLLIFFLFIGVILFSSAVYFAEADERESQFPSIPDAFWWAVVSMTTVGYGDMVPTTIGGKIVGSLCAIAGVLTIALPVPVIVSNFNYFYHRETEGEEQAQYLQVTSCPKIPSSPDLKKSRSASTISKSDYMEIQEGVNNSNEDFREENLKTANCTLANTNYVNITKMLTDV

Turning to `CC(=O)Nc1cnccc1N` [3-N-acetyl amifampridine, N-(4-aminopyridin-3-yl)acetamide], the “activity on K+ channel” value in data set [1] was “inactive”; in data set [1] (listed as N-acetyl metabolite) it was “not active”; in data set [3], “inactive”; in data set [3] (listed as N-acetyl metabolite) it was “not active”. Moreover, the “abundance of major circulating metabolite relative to 3,4-DAP” value in data set [2] was “more abundant than 3,4-DAP”.
